In ChEMBL document CHEMBL3507680, “University of Dundee, Gates Library screen for HepG2 cell viability”:

Experiment: Human HepG2 cell viability assay in 384 well format
Assay type: toxicity, cell-based
Parameters: dose 125 nL, time 70.5 hour; concentration not given beside the values
Conditions: HepG2 cells, read-out: Inhibition

Compound: CSc1ccc(C(=O)C2CCCN(C(=O)CCCn3cncn3)C2)cc1 (stereo not given)
- cytotoxicity at 70.5 h: -6.96%

Compound: CCCc1ccc2oc(C(=O)N3CCN(CCC(N)=O)CC3)c(C)c2c1
- cytotoxicity at 70.5 h: 19.5%

Compound: NC(=O)c1csc(N2C[C@@H](CN3CCC(O)CC3)[C@@H](CO)C2)n1
- cytotoxicity at 70.5 h: -6.31%

Compound: CN(Cc1cc(C2CC2)[nH]n1)Cc1cc2ccc(F)cc2[nH]c1=O
- cytotoxicity at 70.5 h: -12.6%

Compound: CN(C)CCN1CC(C(=O)NCc2cn3cccnc3n2)CC1=O (stereo not given)
- cytotoxicity at 70.5 h: -5.17%

Compound: CCc1ncc(C(=O)NCCN2CCNC2=O)cn1
- cytotoxicity at 70.5 h: -5.68%

Compound: COCCN1CCN(Cc2ccc(C(C)=O)cc2)[C@H]2CS(=O)(=O)C[C@H]21
- cytotoxicity at 70.5 h: -5.05%

Compound: Cc1ncc(S(C)(=O)=O)c(N2CCCN(Cc3ccccn3)CC2)n1
- cytotoxicity at 70.5 h: -5.13%

Compound: CCC[C@@H]1CN(c2ncnc3ccsc23)C[C@H]1NS(C)(=O)=O
- cytotoxicity at 70.5 h: -8.21%

Compound: Fc1ccc(CC2CCN(Cc3nccs3)CC2)cc1
- cytotoxicity at 70.5 h: -7.34%

Compound: CN(C)CCN1CC2(CCCN(c3ccc(Cl)cn3)C2)CCC1=O (stereo not given)
- cytotoxicity at 70.5 h: 3.01%

Compound: CN(C)C[C@H]1C[C@@H](CO)CN(C(=O)CCc2nc(Cl)n[nH]2)C1
- cytotoxicity at 70.5 h: 4.5%

Compound: CSc1ccc(CN2CCn3nc(CNC(C)=O)cc3C2)cc1
- cytotoxicity at 70.5 h: -28.8%

Compound: Cc1ccn(CCNc2ncnc3c2CCN(S(C)(=O)=O)CC3)n1
- cytotoxicity at 70.5 h: 1.8%

Compound: CCCc1nnc(N2CCN(c3cccc(OC)c3)C(=O)C2)o1
- cytotoxicity at 70.5 h: 15.6%

Compound: O=C(NCCCn1ccnn1)C1CCCN(C2CCCC2)C1 (stereo not given)
- cytotoxicity at 70.5 h: -1.79%

Compound: CSCCCN1CC[C@@]2(O)CCN(c3ncccn3)C[C@H]2C1
- cytotoxicity at 70.5 h: -2.32%

Compound: CCC(Nc1ncccn1)c1cccnc1 (stereo not given)
- cytotoxicity at 70.5 h: 8.36%

Compound: CC(C)OC(=O)N1CCCC2(CCC(=O)N(CCc3c[nH]cn3)C2)C1 (stereo not given)
- cytotoxicity at 70.5 h: -1.99%

Compound: CN(CCO)C[C@@H]1CN(Cc2ccccc2C#N)C[C@@H]1CO
- cytotoxicity at 70.5 h: -3.5%

Compound: O=C(COc1ccccc1N1CCCC1)N1CCN[C@H]2CS(=O)(=O)C[C@H]21
- cytotoxicity at 70.5 h: -7.17%

Compound: O=C(N1CCOCC1)N1CCC(Nc2ccncn2)CC1
- cytotoxicity at 70.5 h: -7.28%

Compound: O=C(Nc1ccccc1OCCc1ccccn1)N1CCOCC(O)C1 (stereo not given)
- cytotoxicity at 70.5 h: -8.87%

Compound: CC(C)N1CCCC(C(=O)NCCc2csc(-c3ccncc3)n2)C1 (stereo not given)
- cytotoxicity at 70.5 h: 22%

Compound: COc1ccc(CCCC(=O)N2C[C@H](C3CC3)[C@@H](N(C)C)C2)cc1
- cytotoxicity at 70.5 h: -9.86%

Compound: O=C(NCC(O)c1ccc(F)cc1)C1CCN(C2CCCCC2)CC1 (stereo not given)
- cytotoxicity at 70.5 h: -7.05%

Compound: CCCc1nncn1-c1cc(OC)ccc1OC
- cytotoxicity at 70.5 h: -1.39%

Compound: CCCn1cnnc1CNC1CCSC1 (stereo not given)
- cytotoxicity at 70.5 h: -7.63%

Compound: CCOc1ccc2[nH]c(=O)c(CN3CCCCC3C)cc2c1 (stereo not given)
- cytotoxicity at 70.5 h: -3.42%

Compound: CCc1ccc(S(=O)(=O)N2CC[C@@](O)(CCOC)[C@H](C)C2)cc1
- cytotoxicity at 70.5 h: -10.2%

Compound: Cc1csc2ncnc(N3CCCC(Cn4cc(C(C)(C)O)nn4)C3)c12 (stereo not given)
- cytotoxicity at 70.5 h: -6.36%

Compound: O=C1CC2(CCN(Cc3ccc(C(F)(F)F)nc3)CC2)CN1
- cytotoxicity at 70.5 h: 8.74%

Compound: C[C@@H]1CN(C(=O)c2c[nH]c(=O)c(Cl)c2)CC[C@@]1(O)C1CCOCC1
- cytotoxicity at 70.5 h: -1.04%

Compound: CCC(CO)N(Cc1ccco1)Cc1c(C)nn(C)c1Cl (stereo not given)
- cytotoxicity at 70.5 h: 3.17%

Compound: CCc1cc(C(C)Nc2nc(-c3cccnc3)nc3c2CNC3)on1 (stereo not given)
- cytotoxicity at 70.5 h: -5.83%

Compound: OC1(CNCCc2csc(-c3cccnc3)n2)CCNC1 (stereo not given)
- cytotoxicity at 70.5 h: -14.2%

Compound: COc1ccc(OC2CCN(C(=O)C3CCCN(C)C3)CC2)cc1 (stereo not given)
- cytotoxicity at 70.5 h: -0.196%

Compound: Cn1c(N2CCOCC2)nc2cc(C(=O)N3CCC(O)(CO)C3)ccc21 (stereo not given)
- cytotoxicity at 70.5 h: -2.61%

Compound: CCn1c(N)nc2cc(C(=O)N3Cc4ccccc4C3)cnc21
- cytotoxicity at 70.5 h: -4.1%

Compound: Cc1cc(C)c2c(N(C)CC3CCOC3)ncnc2n1 (stereo not given)
- cytotoxicity at 70.5 h: -4.45%

Compound: Cn1cccc1C(=O)N1CCC(c2nccn2Cc2ccncc2)CC1
- cytotoxicity at 70.5 h: 25.5%

Compound: NCCc1cccc(CN2CCN(c3cccc(Cl)c3)C(=O)C2)c1
- cytotoxicity at 70.5 h: -7.22%

Compound: Cc1c[nH]c(CN2CCCCC2CCN(C)C)c(C)c1=O (stereo not given)
- cytotoxicity at 70.5 h: -10.5%

Compound: O=C(c1ccc(C2CCCO2)s1)N1CCCOCC1 (stereo not given)
- cytotoxicity at 70.5 h: -8.57%

Compound: COCc1cn(CC2CCN(Cc3cc(C)[nH]n3)CC2)nn1
- cytotoxicity at 70.5 h: 20%

Compound: NS(=O)(=O)CCCC(=O)N1CCC2(CC1)c1ccccc1CC2O (stereo not given)
- cytotoxicity at 70.5 h: -4.4%

Compound: Cc1cc(CN2CCCC(CNC(=O)Cn3cccn3)C2)oc1C (stereo not given)
- cytotoxicity at 70.5 h: -6.83%

Compound: COc1ccccc1[C@@H]1CN(CC2CCC2)C[C@H]1C(=O)O
- cytotoxicity at 70.5 h: -5.88%

Compound: Cc1cc(C)n(CC(C)Nc2ncnc3c2CCNC3)n1 (stereo not given)
- cytotoxicity at 70.5 h: -11.9%

Compound: Oc1cc(CNCCCN2CCCC2)nc2ccc(F)cc12
- cytotoxicity at 70.5 h: 12.5%

Compound: Clc1ccccc1OC1CCN(CC2CCOC2)CC1 (stereo not given)
- cytotoxicity at 70.5 h: 3.25%

Compound: Oc1cc(CCC2CCCCN2)cc(-c2cccnc2)c1 (stereo not given)
- cytotoxicity at 70.5 h: -0.0954%

Compound: O=C(c1ccc(S(=O)(=O)NCC(F)F)cc1)N1CC[C@H]2CNC[C@H]21
- cytotoxicity at 70.5 h: 0.673%

Compound: Cc1nnsc1C(=O)N1CCCC(c2nccn2Cc2cscn2)C1 (stereo not given)
- cytotoxicity at 70.5 h: -0.672%

Compound: CN1C[C@@H]2CC[C@H](CC1=O)N2C(=O)c1cc2ccccc2[nH]c1=O
- cytotoxicity at 70.5 h: -6.85%

Compound: CC(C)Oc1cc(N2CCN(Cc3ccsc3)C(CCO)C2)nc(N)n1 (stereo not given)
- cytotoxicity at 70.5 h: -17%

Compound: Cc1nn(C)c(C)c1CN(C(=O)c1cc(Cl)c[nH]c1=O)C(C)C
- cytotoxicity at 70.5 h: -11%

Compound: Cn1ccnc1-c1nccn1-c1cccc(CN2CCCC2)c1
- cytotoxicity at 70.5 h: 2.21%

Compound: O=S(=O)(Cc1ccccc1CN1CC[C@H](CO)[C@H](O)C1)c1ccccc1
- cytotoxicity at 70.5 h: -7.73%

Compound: COc1cc(F)ccc1-c1cc(CO)ccn1
- cytotoxicity at 70.5 h: -8.15%

Compound: Cc1nc[nH]c1CN1CCC(CNC(=O)c2cccc3cnccc23)C1 (stereo not given)
- cytotoxicity at 70.5 h: -7.78%

Compound: Cc1ncc2c(c1CNC(=O)C1(C)CC1)CCNC2
- cytotoxicity at 70.5 h: -7.68%

Compound: Nc1nc2c(c(NCc3ccc(C(=O)N4CCCC4)cc3)n1)CCCC2
- cytotoxicity at 70.5 h: 2.85%

Compound: NC(=O)CCNC(=O)C1(N2CCCCC2)Cc2ccccc2C1
- cytotoxicity at 70.5 h: 9.16%

Compound: Cc1ccc(-c2ccnc(NC(C)c3c(C)n[nH]c3C)n2)c(C)n1 (stereo not given)
- cytotoxicity at 70.5 h: -8.64%

Compound: CCOCC(=O)NC(C)c1cc(C)ccc1C (stereo not given)
- cytotoxicity at 70.5 h: 12.7%

Compound: O=C(C1CCOCC1)N1C[C@H]2CC[C@@H]1CN(C1Cc3ccccc3C1)C2
- cytotoxicity at 70.5 h: -5.9%

Compound: COc1cccc2c(=O)n(Cc3ccnc(C)c3)cnc12
- cytotoxicity at 70.5 h: -26.7%

Compound: Cc1nccn1CCCN1CCCC(c2nccn2CC2CCC2)C1 (stereo not given)
- cytotoxicity at 70.5 h: -12.7%

Compound: Cc1ccc(-n2cccn2)cc1S(=O)(=O)N1C[C@@H]2CC[C@H](C1)N(C)C2
- cytotoxicity at 70.5 h: -1.91%

Compound: CCn1nc(CC(C)C)cc1C(=O)N1CCOCC(O)C1 (stereo not given)
- cytotoxicity at 70.5 h: -2.68%

Compound: CC(C)(C)c1oc(C(N)=O)cc1CN1CCOC(C(F)(F)F)C1 (stereo not given)
- cytotoxicity at 70.5 h: 1.68%

Compound: CC(O)Cc1cn(CC2CCN(C3CCSCC3)CC2)nn1 (stereo not given)
- cytotoxicity at 70.5 h: -4.31%

Compound: COc1cccc(Cn2ncnc2CCC(C)N2CCN(C)CC2)c1 (stereo not given)
- cytotoxicity at 70.5 h: -4.48%

Compound: COCc1nc(CNc2cc(C)nc(-c3ccccc3)n2)no1
- cytotoxicity at 70.5 h: -8.75%

Compound: CSc1ccc(-c2nc(CN3C[C@@H](C)NC[C@@H]3C)c(C)o2)cc1
- cytotoxicity at 70.5 h: -4.1%

Compound: c1ccc(-c2cc(CN3C[C@@H]4CC[C@H](C3)N(CC3CCC3)C4)on2)cc1
- cytotoxicity at 70.5 h: -11.6%

Compound: CC(c1nccs1)N(C)C(=O)c1cc(CN(C)Cc2ccccc2)on1 (stereo not given)
- cytotoxicity at 70.5 h: 0.573%

Compound: Cc1ccccc1OC(C(=O)N1CCC2(CC1)CN(C)C(=O)O2)C(C)C (stereo not given)
- cytotoxicity at 70.5 h: -4.56%

Compound: Cc1ccnc(CC(C)N(C)c2cc(CN)nc(C)n2)c1 (stereo not given)
- cytotoxicity at 70.5 h: -5.59%
